In assay [1] the test system is LPS/D-Gal-induced liver injury. Description: LPS/D-Gal acute hepatitis model. Type of assay: in vivo, mice. On the procedure: Results discussed above were confirmed using lipopolysaccharide (LPS, also referred to as endotoxin) in place of TNF. […] In mice pretreated with 250 ppm CO, the increase in ALT was reduced by >75%, to 250+/−75 IU/ml. To further characterize the effects observed with CO in this model, serum interleukin-6 was measured, and found to be reduced 65% in animals breathing CO vs air-breathing controls (data not shown). […] Few changes in the markers of inflammation (edema, hemorrhage, neutrophil infiltration) were observed. Architecture was maintained and appeared grossly similar to untreated and CO (in the absence of LPS/D-Gal)-treated mice. Overall, the use of LPS/D-Gal to induce acute hepatitis paralleled and confirmed data generated using TNF/D-Gal treatment.

Assay [2] concerns TNF-α/D-gal-induced liver injury. On the procedure:
Male C57BL/6J ([…], Bar Harbor, Me.), 8-12-wk-old inos^−/− mice and wild type littermates (bred/maintained at the University of Pittsburgh) were used for in vivo experiments.
10 mg/kg subcutaneously (s.c.), Alexis Biochem., San Diego, Calif.) or cobalt protoporphyrin (CoPP, 5 mg/kg, intraperitoneally (i.p.), Frontier Scientific, Logan, Utah). […] Where indicated, acetaminophen (Sigma Chem. Co.; St Louis, Mo.) was administered (500 mg/kg, i.p.).
A CO analyzer (Interscan, Chatsworth, Calif.) was used to measure CO levels continuously in the chamber. CO concentrations were maintained at 250 ppm at all times. Mice were placed in the exposure chamber as required.
Whether HO-1 is protective against acute hepatic failure was investigated. Cobalt protoporphyrin (5 mg/kg, i.p.) was administered to male C57BL/6J mice. Twenty-four hours later, TNF-α/D-gal (0.3 μg/8 mg/mouse, i.p., respectively) was administered to the mice. Serum alanine aminotransferase (ALT) levels in the mice were measured 8 hours after administration of TNF-α/D-gal.
After receiving TNF-α/D-gal, mice were returned to the CO exposure chamber and their serum was analyzed for ALT levels 6-8 hr later.
To generate the data presented in FIGS. 11A-11H, liver samples from mice treated with TNF-α/D-gal in the presence and absence of CO (250 ppm) for 8 hr were sectioned and stained for hematoxylin & eosin (H&E), activated caspase 3 (as indicated by an increase in red intensity), and for TUNEL positive cells (as demarcated by the increased green cellular staining; a marker of cell death). Nuclei stained blue.
L-NIL was administered 2 hr prior to CO. CO-treated animals were then pre-treated (250 ppm) for 1 hr prior to TNF-α/D-gal.
VP was selectively designed to deliver NO directly to the liver. One hour after the initial VP dose, the animals were exposed to CO for 1 hr prior to administration of TNF-α/D-gal (see above). Serum ALT levels were determined 6-8 hr later.
These mice and inos^−/− mice were then administered CoPP. L-NIL was maintained in the water throughout the experiment. Control and inos^−/− mice received normal drinking water. Twenty-four hr after administration of CoPP, TNF-α/D-gal was administered and serum ALT determined 6-8 hr later.

Assay [3] relates to hemorrhagic shock liver injury. Description: Murine model of hemorrhagic shock, liver injury. Type of assay: in vivo. As to conditions: inhaled CO during resuscitation after 2.5 hour shock phase; at 24 hr.
Another assay has as its system iNOS. Put plainly: iNOS promoter luciferase reporter assay in hepatocytes. It is filed as cell-based. The note with it: CO 250 ppm. The method, then:
(§1) In some experiments, gene transfer of an IκBα superrepressor (Hellerbrand et al., Hepatology 27:1285-1295 (1998)) or β-galactosidase using adenoviral vectors (10 pfu/cell) was performed 12 hours prior to TNF-α/ActD treatment. NF-κB activation was evaluated using a luciferase reporter assay as described in Chow et al. (J. Biol. Chem. 274: 10689-10692 (1999)). Briefly, hepatocytes were co-transfected with NF-κB reporter constructs (pGL3-kappaβ luciferase, 100 ng/well; and pIEP-Lac-z 0.5 μg/well) using Lipofectin™ (Invitrogen, Carlsbad, Calif.) as instructed by the manufacturer. Evaluation of iNOS expression was performed using a luciferase reporter assay as described in Lowenstein et al. (Proc. Natl. Acad. Sci. U.S.A 90: 9730-9734 (1993)). Briefly, hepatocytes were co-transfected with iNOS promoter reporter constructs (pXP2; 1 μg/well) and pIEP-LacZ (0.5 μg/well) as described above.
Hepatocytes were transfected with plasmids as described above and treated with various stimuli 24 hours after transfection. Luciferase activity (reported as arbitrary units; A.U.) was assayed 6 hours after initiation of treatment, using a luciferase assay kit (Promega, Madison, Wis.) and a Berthold Luminometer. Results were corrected for transfection efficiency and protein concentration. […]
A general note: A reporter such as luciferase makes a cellular process visible.

In another assay the test system is NF-κB. Description: NF-κB luciferase reporter assay in hepatocytes. Type of assay: cell-based, mouse. The note with it: CO 250 ppm; reporter activity peaked one hour after placing cells in CO. On the procedure:
as §1
Hepatocytes were transfected with plasmids as described above and treated with various stimuli 24 hours after transfection. […] Results were corrected for transfection efficiency and protein concentration.
To generate the data presented in FIG. 4, evaluation of NF-κB activation was performed using a luciferase reporter assay as described in Chow et al. (J. Biol. Chem. 274: 10689-10692 (1999)). […]

Where [4] appears, read: pretreated with 250 ppm CO, 8 hours after LPS/D-Gal.
The mark [5] stands for this setting: CO 250 ppm for 8 hr, TNF-α/D-gal.

For `[C-]#[O+]` [CO, carbon monoxide], the Liver histopathology result in assay [1] (CO and LPS/D-Gal) is “protected to the same extent”. Also, in assay [1] (animals breathing CO, LPS/D-Gal, data not shown), the “Serum interleukin-6 reduced vs air-breathing controls” value is given as 65%. Also, in assay [1] (setting [4]), the “Reduction of the increase in serum ALT” value is listed as > 75% and the “Serum ALT” value is reported as 250+/−75 IU/ml. The “TNF-α/D-gal-induced liver damage by H&E staining” value in assay [2] (CO 250 ppm for 8 hr) is “markedly reduced”. For the same compound, in assay [2] (setting [5]), the “Staining of activated caspase-3 in liver” value is listed as “less staining” and the “TUNEL positive cells in liver” value is on record as “fewer TUNEL positive cells”. Besides, the “Serum ALT lower than in air-exposed mice” value in assay [2] (CO 250 ppm, 1 hr pre-treatment and continued, ALT 6-8 hr after TNF-α/D-gal) is reported as 74%. Further, in assay [2] (CO 250 ppm, inos−/− mice and wild type mice treated with L-NIL 5 mg/kg i.p. every two hours), the “Protection against liver damage (serum ALT, histopathology) in absence of iNOS function/expression” value is “unable to protect against liver damage”. Further, the “Reduction in serum ALT” value in assay [3] was > 65%. Moreover, in the assay with iNOS, the “iNOS luciferase reporter activity” value is reported as “highly significant increase in activity”. In the assay on NF-κB, the “NF-κB activation (luciferase reporter, EMSA, immunostaining)” value was “moderate increase”.

For the origin of these results see patent publication US9522163B2, “Methods of treating hepatitis” (priority 2002, dated 2016).
